Here are results for five molecules from patent US10800741B2 (ANCUREALL PHARMACEUTICAL (SHANGHAI) CO., LTD., priority 2017, dated 2020).

pIC50: −log10 of the molar value. Where two headings read alike, the source gives them in different places.

Assay [1] relates to human intestinal cancer cell line HCT116 (KRAS G13D mutation). The experiment in a line: Growth inhibition in combination with MEK1/2 inhibitor Trametinib, HCT116 (KRAS G13D mutation). Type of assay: cell-based. Conditions: 5 days. The procedure: (§1) Test Example 5 Synergistic Inhibition Effect of the Present Compounds in Combination with MEK1/2 Inhibitor on the Growth of RAS Mutant Tumor Cells In Vitro
(§2) The cell culture, drug treatment and MTT assay of human intestinal cancer cell line HCT116 (KRAS G13D mutation) and human non-small cell lung cancer cell line NCI-H1299 (NRAS Q61K mutation) were performed according to the method of test example 1. Cells were treated with the MEK1/2 inhibitor Trametinib at 25 nM, 2.5 nM and 0.25 nM alone or in combination with compound 66 or 125 of the present invention (5 days).

In assay [2] the test system is human non-small cell lung cancer cell line NCI-H1299 (NRAS Q61K mutation). The assay is described as follows: Growth inhibition in combination with MEK1/2 inhibitor Trametinib, NCI-H1299 (NRAS Q61K mutation). Type of assay: cell-based. Conditions: 5 days. The procedure:
as §1, §2

Another assay relates to H1581 (FGFR1 amp). The experiment in a line: In vitro growth inhibition of H1581 tumor cells (MTT/CCK8). Type of assay: cell-based, Human. The settings on record: in vitro growth inhibition (or induction of apoptosis), cells cultured 3 to 5 days, MTT (CCK8), read-out: IC50 H1581 (FGFR1 amp).
A further assay deals with MOLM-13 (FLT3-ITD). The experiment in a line: In vitro growth inhibition of MOLM-13 tumor cells (MTT/CCK8). Conditions: in vitro growth inhibition (or induction of apoptosis), cells cultured 3 to 5 days, MTT (CCK8), read-out: IC50 MOLM-13 (FLT3-ITD). It counts as cell-based, Human.
In the next assay the test system is KATO III (FGFR2 amp). The experiment in a line: In vitro growth inhibition of KATO III tumor cells (MTT/CCK8). It counts as cell-based, Human. The settings on record: in vitro growth inhibition (or induction of apoptosis), cells cultured 3 to 5 days, MTT (CCK8), read-out: IC50 KATO III (FGFR2 amp).
The subject of another assay is Hep3B2 (FGFR3/4+++). The assay is described as follows: In vitro growth inhibition of Hep3B2 tumor cells (MTT/CCK8). It counts as cell-based, Human. The settings on record: in vitro growth inhibition (or induction of apoptosis), cells cultured 3 to 5 days, MTT (CCK8), read-out: IC50 Hep3B2 (FGFR3/4+++).
In the next assay the test system is H1703 (PDGFRa amp). The assay is described as follows: In vitro growth inhibition of H1703 tumor cells (MTT/CCK8). The settings on record: in vitro growth inhibition (or induction of apoptosis), cells cultured 3 to 5 days, MTT (CCK8), read-out: IC50 H1703 (PDGFRa amp). Type of assay: cell-based, Human.
The test system of the next assay is Kasumi-1 (KIT N822K). The experiment in a line: In vitro growth inhibition of Kasumi-1 tumor cells (MTT/CCK8). Type of assay: cell-based, Human. Conditions: in vitro growth inhibition (or induction of apoptosis), cells cultured 3 to 5 days, MTT (CCK8), read-out: IC50 Kasumi-1 (KIT N822K).
The next assay deals with Karpas 299 (NPM-ALK). The experiment in a line: In vitro growth inhibition of Karpas 299 tumor cells (MTT/CCK8). Conditions: in vitro growth inhibition (or induction of apoptosis), cells cultured 3 to 5 days, MTT (CCK8), read-out: IC50 Karpas 299 (NPM-ALK). Type of assay: cell-based, Human.
For another assay, the system named is KCL-22 (BCR-ABL). The experiment in a line: In vitro growth inhibition of KCL-22 tumor cells (MTT/CCK8). Type of assay: cell-based, Human. Conditions: in vitro growth inhibition (or induction of apoptosis), cells cultured 3 to 5 days, MTT (CCK8), read-out: IC50 KCL-22 (BCR-ABL).
[3] abbreviates: compound 7.8 nM + Trametinib 0.25 nM.
The mark [4] stands for this setting: compound 7.8 nM + Trametinib 2.5 nM.
[5] abbreviates: compound 7.8 nM + Trametinib 25 nM.
Setting [6] is: compound 15.6 nM + Trametinib 0.25 nM.
[7] abbreviates: compound 15.6 nM + Trametinib 2.5 nM.
Where [8] appears, read: compound 15.6 nM + Trametinib 25 nM.

With `CC(=O)Nc1cccc(-n2c(=O)n(C3CC3)c(=O)c3c(Nc4ccc(I)cc4F)n(C)c(=O)c(C)c32)c1` [Trametinib, reference compound], the inhibition at 0.00025 µM in assay [1] (Homo sapiens, HCT-116, 120 h, Trametinib 0.25 nM alone, read-out: cell growth inhibition (percentage)) was determined as 12.1%; in [2] (Homo sapiens, NCI-H1299, 120 h, Trametinib 0.25 nM alone, read-out: cell growth inhibition (percentage)), 2.2%. The inhibition at 0.0025 µM in assay [1] (Homo sapiens, HCT-116, 120 h, Trametinib 2.5 nM alone, read-out: cell growth inhibition (percentage)) was determined as 27.7%; in [2] (Homo sapiens, NCI-H1299, 120 h, Trametinib 2.5 nM alone, read-out: cell growth inhibition (percentage)), 6.31%. Moreover, the inhibition at 0.025 µM turned out to be 75.1% in assay [1] (Homo sapiens, HCT-116, 120 h, Trametinib 25 nM alone, read-out: cell growth inhibition (percentage)) and 15.5% in [2] (Homo sapiens, NCI-H1299, 120 h, Trametinib 25 nM alone, read-out: cell growth inhibition (percentage)).

Regarding `COCCOc1cc2nccc(Oc3ccc(NC(=O)Nc4cc(C(C)(C)C)nn4C4CC4)c(Cl)c3)c2cc1NC(C)=O` [Compound 125], the inhibition at 0.0078 µM in assay [1] (Homo sapiens, HCT-116, 120 h, compound 7.8 nM alone (solvent instead of Trametinib), read-out: cell growth inhibition (percentage)) is 14.5%; in assay [2] (Homo sapiens, NCI-H1299, 120 h, compound 7.8 nM alone (solvent instead of Trametinib), read-out: cell growth inhibition (percentage)) it was 1.63%. Also, the inhibition at 0.0156 µM was 19.9% in assay [1] (Homo sapiens, HCT-116, 120 h, compound 15.6 nM alone (solvent instead of Trametinib), read-out: cell growth inhibition (percentage)) and 6.5% in assay [2] (Homo sapiens, NCI-H1299, 120 h, compound 15.6 nM alone (solvent instead of Trametinib), read-out: cell growth inhibition (percentage)). The “cell growth inhibition (percentage)” value is 62.54% in [1] (setting [3]); 76.01% in assay [1] (setting [4]); 82.04% in assay [1] (setting [5]); 71.98% in [1] (setting [6]); 79.72% in [1] (setting [7]); 82.82% in [1] (setting [8]). For the same molecule, the “cell growth inhibition (percentage)” value in assay [2] (setting [3]) was 9.27%; in assay [2] (setting [4]), 24.38%; in [2] (setting [5]) it was 46.25%; in assay [2] (setting [6]), 19.92%; in assay [2] (setting [7]), 34.72%; in assay [2] (setting [8]), 58.26%. The pIC50 in the assay with H1581 (FGFR1 amp) (Homo sapiens, NCI-H1581) was 8.97; in the assay on MOLM-13 (FLT3-ITD) (Homo sapiens, MOLM-13) it was 8.92; with KATO III (FGFR2 amp) (Homo sapiens, KATO III) it was 9.64.

As for `CC(C)(C)c1cc(NC(=O)Nc2ccc(Oc3ccnc4cc(OCCN5CCOCC5)c(C(N)=O)cc34)cc2Cl)[nH]n1` [Compound 81, 4-{4-[3-(5-tert-butyl-2H-pyrazol-3-yl)-ureido]-3-chloro-phenoxy}-7-(2-morpholin-4-yl-ethoxy) pyridine-6-carboxamide], the pIC50 in the assay on Hep3B2 (FGFR3/4+++) is 7.35; with H1581 (FGFR1 amp) it was 8.31; in the assay on H1703 (PDGFRa amp) it was 7.95; in the assay with MOLM-13 (FLT3-ITD) it was 7.92; with Kasumi-1 (KIT N822K), 7.57; in the assay on Karpas 299 (NPM-ALK), 6.33. Further, the pIC50 with KCL-22 (BCR-ABL) is 7.46; in the assay on KATO III (FGFR2 amp), 9.51.

With `COCCNC(=O)c1cc2c(Oc3ccc(NC(=O)Nc4cc(C(C)(C)C)on4)c(Cl)c3)ccnc2cc1OC` [Compound 17, 4-{4-[3-(5-tert-butyl-isoxazol-3-yl)-ureido]-3-chloro-phenoxy}-7-methoxyquinolin-6-carboxylic acid (2-methoxy-ethyl)-amide], the pIC50 is 7.07 in the assay with Hep3B2 (FGFR3/4+++) (Homo sapiens, Hep3B); 7.50 in the assay with H1581 (FGFR1 amp) (Homo sapiens, NCI-H1581); 6.78 in the assay on H1703 (PDGFRa amp) (Homo sapiens, NCI-H1703); 8.11 in the assay with MOLM-13 (FLT3-ITD) (Homo sapiens, MOLM-13); 7.15 in the assay on Kasumi-1 (KIT N822K) (Homo sapiens, Kasumi 1); 6.11 in the assay on Karpas 299 (NPM-ALK) (Homo sapiens, KARPAS-299). Also, the pIC50 with KCL-22 (BCR-ABL) (Homo sapiens, KCL-22) was 7.64; in the assay with KATO III (FGFR2 amp) (Homo sapiens, KATO III), 8.41.

Consider `CNC(=O)c1cc2c(Oc3ccc(NC(=O)Nc4cc(C(C)(C)C)nn4C)cc3C)ccnc2cc1OC` [Compound 53, 4-{4-[3-(5-tert-butyl-2-methyl-2H-pyrazol-3-yl)-ureido]-2-methyl-phenoxy}-7-methoxy quinolin-6-carboxylate acid methylamide], for which the pIC50 in the assay with Hep3B2 (FGFR3/4+++) (Homo sapiens, Hep3B) was 6.46; with H1581 (FGFR1 amp) (Homo sapiens, NCI-H1581), 6.66; in the assay on H1703 (PDGFRa amp) (Homo sapiens, NCI-H1703), 7.19; with MOLM-13 (FLT3-ITD) (Homo sapiens, MOLM-13), 8.95; in the assay on Kasumi-1 (KIT N822K) (Homo sapiens, Kasumi 1), 7.75; in the assay on Karpas 299 (NPM-ALK) (Homo sapiens, KARPAS-299), 6.52. For the same molecule, the pIC50 is 7.54 in the assay on KCL-22 (BCR-ABL) (Homo sapiens, KCL-22) and 8.17 in the assay with KATO III (FGFR2 amp) (Homo sapiens, KATO III).
